From patent US20060178359A1, “Tricyclic compound, process for producing the same, and use” (priority 2003, published 2006)

Target: T1, human CCR5 (Homo sapiens, UniProt P51681)
T1 construct: expressed in transfected cells
Test: inhibition of [125I]-RANTES binding to CCR5/CHO cells
Conditions: test compound 1 μM, 100 pM [125I]-RANTES, room temperature, 40 minutes
Method: (1) Cloning of Human CCR5 Chemokine Receptor
Cloning of a CCR5 gene was conducted from human spleen cDNA by a PCR method. Using 0.5 ng of spleen cDNA (Toyobo Co., Ltd., QUICK-Clone cDNA) as a template, the PCR reaction was carried out in a DNA Thermal Cycler 480 (Perkin Elmer) using a TaKaRa EX Taq (Takara Shuzo Co., Ltd.) (reaction conditions: 30 cycles of treatments at 95° C. for 1 minute, at 60° C. for 1 minute, and at 75° C. for 5 minutes) by adding 25 pmol of primers, SEQ ID NO. 1 (sequence length: 34; sequence type: nucleic acid; number of chains: a single chain; topology: linear; sequence kind: other nucleic acid, synthetic DNA) described in Experimental Example (1) of WO 99/32100, and SEQ ID NO. 2 (sequence length: 34; sequence type: nucleic acid; number of chains: a single chain; topology: linear; sequence kind: other nucleic acid, synthetic DNA) described in Experimental Example (1) of WO 99/32100, respectively, which were prepared by referring to the base sequence of the CCR5 gene described by Samson et al. (Biochemistry 35 (11), 3362-3367 (1996)). The PCR products were subjected to agarose gel electrophoresis to collect DNA fragments of about 1.0 kb. Then, the CCR5 gene was cloned using an Original TA Cloning Kit (Funakoshi Co., Ltd.).
(2) Preparation of Plasmid for Expression of Human CCR5
The plasmids obtained above were digested with restriction enzymes XbaI (Takara Shuzo Co., Ltd.) and BamHI (Takara Shuzo Co., Ltd.), and subjected to agarose gel electrophoresis to collect DNA fragments of about 1.0 kb. The DNA fragments and a plasmid pcDNA3.1 (Funakoshi Co., Ltd.) for expression in animal cells, which was previously digested with XbaI and BamHI, were mixed and ligated by DNA Ligation Kit Ver. 2 (Takara Shuzo Co., Ltd.). Transformation of E. coli JM109 competent cells (Takara Shuzo Co., Ltd.) gave plasmid pCKR5.
(3) Introduction of the Plasmid for Expression of Human CCR5 into CHO-K1 Cells and Expression Thereof
CHO-K1 cells grown in a 750 ml tissue culture flask (Becton Dickinson) using Ham's F12 medium (Nihon Pharmaceutical Co., Ltd.) containing 10% fetal bovine serum (Lifetech Oriental) were collected from the flask by using 0.5 g/L trypsin-0.2 g/L EDTA (Lifetech Oriental). The cells were then washed with PBS (Lifetech Oriental), centrifuged (1000 rpm, 5 minutes), and suspended in PBS. Next, DNA was introduced into the cells using Gene Pulser (Bio-Rad Laboratories Inc.) under the following conditions. Namely, 8×10^6 cells and 10 μg of plasmid pCKR5 for expression of human CCR5 were added into a cuvette of a 0.4 cm-gap, and electroporation was carried out at an electric voltage of 0.25 kV and a capacitance of 960 μF. Subsequently, the cells were transferred into Ham's F12 medium containing 10% fetal bovine serum, and incubated for 24 hours. The cells were again collected, centrifuged, and then suspended in Ham's F12 medium containing 10% fetal bovine serum and Geneticin (Lifetech Oriental) at a concentration of 500 μg/ml. The suspension of cells was diluted to a concentration of 10^4 cells/ml, and inoculated on a 96-well plate (Becton Dickinson) to give Geneticin-resistant strains.
Subsequently, the Geneticin-resistant strains were cultured in the 96-well plate (Becton Dickinson), and then CCR5-expressing cells were selected from the resistant strains. […] The cells to which the ligand bound specifically, i.e., CCR5/CHO strains, were selected by measurement of radioactivity by γ-counter. […]

T1 sequence (P51681 whole entry): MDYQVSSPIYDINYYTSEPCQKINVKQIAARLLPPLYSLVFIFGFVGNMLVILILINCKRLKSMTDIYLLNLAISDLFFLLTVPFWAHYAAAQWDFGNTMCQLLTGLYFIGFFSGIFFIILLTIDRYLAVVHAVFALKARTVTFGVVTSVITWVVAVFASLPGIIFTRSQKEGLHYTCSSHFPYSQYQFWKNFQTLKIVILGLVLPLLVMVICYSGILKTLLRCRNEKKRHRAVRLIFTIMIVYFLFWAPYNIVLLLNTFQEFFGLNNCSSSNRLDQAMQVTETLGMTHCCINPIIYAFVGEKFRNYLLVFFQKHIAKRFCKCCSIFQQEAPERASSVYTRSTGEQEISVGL

| SMILES | Binding Inhibitory Ratio (%) |
| --- | --- |
| CCCCOCCOc1ccc(-c2ccc3c(c2)C=C(C(=O)Nc2ccc([S+]([O-])Cc4cncn4CCC)cc2)CCC2CCCCN32)cc1 (centres unmarked) [Compound 8, (Ss)-10-[4-(2-butoxyethoxy)phenyl]-N-[[4-[(1-propyl-1H-imidazol-5-yl)methyl]sulfinyl]phenyl]-2,3,4,4a,5,6-hexahydropyrido[1,2-a][1]benzazocine-6-carboxamide] | 97% |
| CCCCOCCOc1ccc(-c2cnc3c(c2)C=C(C(=O)Nc2ccc([S@@+]([O-])Cc4cncn4CCC)cc2)CC[C@@H]2CCCN32)cc1 [Compound 16, (8aR,Ss)-3-[4-(2-butoxyethoxy)phenyl]-N-[4-[[(1-propyl-1H-imidazol-5-yl)methyl]sulfinyl]phenyl]-7,8,8a,9,10,11-hexahydropyrido[3,2-g]pyrrolo[1,2-a]azocine-6-carboxamide] | 94% |
| CCCCOCCOc1ccc(-c2cnc3c(c2)C=C(C(=O)Nc2ccc([S@@+]([O-])Cc4cncn4CCC)cc2)CC[C@H]2CCCN32)cc1 [Compound 17, (8aS,Ss)-3-[4-(2-butoxyethoxy)phenyl]-N-[4-[[(1-propyl-1H-imidazol-5-yl)methyl]sulfinyl]phenyl]-7,8,8a,9,10,11-hexahydropyrido[3,2-g]pyrrolo[1,2-a]azocine-6-carboxamide] | 98% |
| CCCCOCCOc1ccc(-c2ccc3c(c2)C=C(C(=O)Nc2ccc([S+]([O-])Cc4cncn4CCC)cc2)CCC2CCCN32)cc1 (centres unmarked) [Compound 5, (Ss)-9-[4-(2butoxyethoxy)phenyl]-N-[4-[[(1-propyl-1H-imidazol-5-yl)methyl]sulfinyl]phenyl]-1,2,3,3a,4,5-hexahydropyrrolo[1,2-a][1]benzazocine-6-carboxamide] | 96% |
| CCCCOCCOc1ccc(-c2cnc3c(c2)C=C(C(=O)Nc2ccc([S@@+]([O-])Cc4cncn4CCC)cc2)CCC2CCCN32)cc1 (some centres unmarked) [Compound 15, (Ss)-3-[4-(2-butoxyethoxy)phenyl]-N-[4-[[(1-propyl-1H-imidazol-5-yl)methyl]sulfinyl]phenyl]-7,8,8a,9,10,11-hexahydropyrido[3,2-g]pyrrolo[1,2-a]azocine-6-carboxamide] | 100% |
